Results reported in PubChem BioAssay AID2060502 (Molecular Pharmacology Branch, DTP, NCI, 2025).

System: 885724-159-R-J1-PDC complex spheroid viability
Test: Anticancer human tumor 885724-159-R-J1-PDC patient-derived pancreatic adenocarcinoma cell line growth inhibition [GQUAD]
Conditions: for IC50: curve of first compound; for viability, T/C: stronger effect = lower value
Text: DNA G-quadruplex Stabilizer Agents in Combinations in Complex Spheroids
A high-throughput screen of multi-cell type tumor spheroids was designed to identify active combinations of DNA G-quadruplex stabilizer agents and targeted small molecules. Complex spheroids include a stromal component modeled by human endothelial cells (HUVEC) and fibroblasts modeled by human mesenchymal stem cells (MSCs). The concentration ranges selected for each drug and investigational agent were based upon clinically achievable concentrations if the clinical Cmax of the agent was known.
Compounds. The drugs and investigational agents: pidnarulex (CX-5461; NSC782164), APTO-253 (NSC789042), BRACO-19 (NSC847499), peposertib (NSC802822), ceralasertib (NSC780249), elimusertib (NSC800525), camonsertib (NSC841442), AZD-1390 (NSC803789), olaparib (NSC753686), talazoparib (NSC767125), ART-558 (NSC835418), sotorasib (NSC818433), MRTX-1133 (NSC836407), SN-38 (NSC673596), topotecan (NSC609699), etoposide (NSC141540), doxorubicin (NSC123127), gemcitabine (NSC613327), 5-fluorouracil (NSC19893), paclitaxel (NSC125973), vemurafenib (NSC761431), panobinostat (NSC761190), R-306465 (JNJ-16241199; NSC773264), adavosertib (NSC754352), TP-3654 (NSC805149), carboplatin (NSC241240), KSQ-4279 (NSC840948), and staurosporine (NSC755774) were obtained from the National Cancer Institute (NCI) Developmental Therapeutics Program Chemical Repository (34). The FDA-approved anticancer drug set is available from the NCI Developmental Therapeutics Program. […] The stock solutions were prepared in dimethyl sulfoxide (DMSO, Sigma-Aldrich, St. Louis, MO, cat. D2650) at 800-fold the tested concentration and stored at -70 degrees C prior to their use. All drugs and investigational agents were tested over a range starting from a high concentration at or near the clinical Cmax and decreasing in half-log increments. If the clinical Cmax for an agent had not been determined, the highest concentration tested was 10 microM.
2.3 Cell Culture. All cells were maintained in an incubator at 37 degrees C and 5% CO2 with 95% humidity. The PDC lines were cultured according to standard operating procedures established by the NCI PDMR. All PDCs were thawed and cultured in Matrigel-coated flasks prepared with a working solution of 1X Ham's F-12 nutrient mix, without supplementation (Invitrogen, cat. 11765054), 100 U/mL penicillin-streptomycin (Invitrogen, cat. 15140122), and 2.5% Matrigel (Corning Inc., cat. 354248) for the first three passages. The 857933-349-R-J2-PDC line was cultured in 6C/Colon 1B media, which includes advanced DMEM/F-12 (Thermo Fisher Scientific, cat. 12634028), 10 mM HEPES (Thermo Fisher Scientific, cat. 15630080), 1X GlutaMAX supplement (Thermo Fisher Scientific, cat. 35050061), 0.1 mg/mL primocin (InvivoGen, cat. ant-pm-2), 10% defined fetal bovine serum, heat inactivated (HyClone Laboratories Inc., cat. SH30070.03HI), 50% L-WRN conditioned media (ATCC, cat. CRL-3276), 1.25 mM N-Acetyl-L-cysteine (Sigma-Aldrich, cat. A9165), 10 mM nicotinamide (Sigma-Aldrich, cat. N0636), 1X B-27 supplement (Thermo Fisher Scientific, cat. 17504044), 1X N-2 supplement (Thermo Fisher Scientific, cat. 17502048), 10 microM Y-27632 dihydrochloride (Tocris Bioscience, cat. 1254), and 50 ng/mL human EGF recombinant protein (Thermo Fisher Scientific, cat. PHG0311). The 485176-168-R4-J1-PDC line was cultured in Panc media, which includes all 6C/Colon 1B media components plus 100 ng/mL human FGF-10 (Thermo Fisher Scientific, cat. 100-26), 500 nM SB-431542 (Selleckchem, cat. S1067), and gastrin (Tocris, cat. 3006).
[…]

[1] = second compound 0.0316 µM, first compound 0.0316 µM
[2] = second compound 0.0316 µM, first compound 0.316 µM
[3] = second compound 0.1 µM, first compound 0.0316 µM
[4] = second compound 0.1 µM, first compound 0.316 µM
[5] = second compound 0.316 µM, first compound 0.0316 µM
[6] = second compound 0.316 µM, first compound 0.316 µM
[7] = second compound 1 µM, first compound 0.0316 µM
[8] = second compound 1 µM, first compound 0.316 µM
[9] = second compound 3.16 µM, first compound 0.0316 µM
[10] = second compound 3.16 µM, first compound 0.316 µM
[11] = second compound 10 µM, first compound 0.0316 µM
[12] = second compound 10 µM, first compound 0.316 µM
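Also: spheroids exposed to agents for seven days before readout.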
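For viability, T/C in this document: percent of vehicle control viability where 100% = DMSO wells.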

With `Cn1ncnc1[C@H]1c2n[nH]c(=O)c3cc(F)cc(c23)N[C@@H]1c1ccc(F)cc1` + Cc1cnc(CNC(=O)c2c(=O)c3ccc(N4CCCN(C)CC4)nc3n3c2sc2ccccc23)cn1 the IC50 (second compound 0.0316 µM) was > 0.316 µM, the IC50 (second compound 0.1 µM) was > 0.316 µM and the IC50 (second compound 0.316 µM) was > 0.316 µM. The IC50 (second compound 1 µM) was > 0.316 µM, the IC50 (second compound 3.16 µM) was > 0.316 µM and the IC50 (second compound 10 µM) was > 0.316 µM. For the same compound, the viability, T/C (second compound 0.0316 µM, first compound 0.000999 µM) was 90.3%, the viability, T/C (second compound 0.0316 µM, first compound 0.00316 µM) was 107% and the viability, T/C (second compound 0.0316 µM, first compound 0.00999 µM) was 96.3%. The viability, T/C [1] was 108%, the viability, T/C (second compound 0.0316 µM, first compound 0.0999 µM) was 90.3% and the viability, T/C [2] was 92.7%. It also gave a viability, T/C (second compound 0.1 µM, first compound 0.000999 µM) of 117%, a viability, T/C (second compound 0.1 µM, first compound 0.00316 µM) of 115% and a viability, T/C (second compound 0.1 µM, first compound 0.00999 µM) of 97.1%. It also gave a viability, T/C [3] of 100%, a viability, T/C (second compound 0.1 µM, first compound 0.0999 µM) of 98.8% and a viability, T/C [4] of 92.2%. For the same compound, the viability, T/C (second compound 0.316 µM, first compound 0.000999 µM) was 90.1%, the viability, T/C (second compound 0.316 µM, first compound 0.00316 µM) was 94.5% and the viability, T/C (second compound 0.316 µM, first compound 0.00999 µM) was 104%. It also gave a viability, T/C [5] of 96.3%, a viability, T/C (second compound 0.316 µM, first compound 0.0999 µM) of 96.6% and a viability, T/C [6] of 98.7%. It also gave a viability, T/C (second compound 1 µM, first compound 0.000999 µM) of 86.8%, a viability, T/C (second compound 1 µM, first compound 0.00316 µM) of 85.6% and a viability, T/C (second compound 1 µM, first compound 0.00999 µM) of 82.3%. It also gave a viability, T/C [7] of 79.2%, a viability, T/C (second compound 1 µM, first compound 0.0999 µM) of 87.4% and a viability, T/C [8] of 84.2%. It also gave a viability, T/C (second compound 3.16 µM, first compound 0.000999 µM) of 79.8%, a viability, T/C (second compound 3.16 µM, first compound 0.00316 µM) of 76.1% and a viability, T/C (second compound 3.16 µM, first compound 0.00999 µM) of 78.9%. The viability, T/C [9] was 76.1%, the viability, T/C (second compound 3.16 µM, first compound 0.0999 µM) was 81% and the viability, T/C [10] was 72.6%. For the same compound, the viability, T/C (second compound 10 µM, first compound 0.000999 µM) was 82.4%, the viability, T/C (second compound 10 µM, first compound 0.00316 µM) was 88.2% and the viability, T/C (second compound 10 µM, first compound 0.00999 µM) was 83%. For the same compound, the viability, T/C [11] was 89.4%, the viability, T/C (second compound 10 µM, first compound 0.0999 µM) was 105% and the viability, T/C [12] was 94.6%.
`O=C(c1cc(Cc2n[nH]c(=O)c3ccccc23)ccc1F)N1CCN(C(=O)C2CC2)CC1` + Cc1cnc(CNC(=O)c2c(=O)c3ccc(N4CCCN(C)CC4)nc3n3c2sc2ccccc23)cn1 was tested, and the IC50 (second compound 0.0316 µM) was > 10 µM, the IC50 (second compound 0.1 µM) was > 10 µM and the IC50 (second compound 0.316 µM) was > 10 µM. For the same compound, the IC50 (second compound 1 µM) was > 10 µM, the IC50 (second compound 3.16 µM) was > 10 µM and the IC50 (second compound 10 µM) was > 10 µM. It also gave a viability, T/C [1] of 97.6%, a viability, T/C (second compound 0.0316 µM, first compound 0.1 µM) of 96.7% and a viability, T/C [2] of 98.6%. For the same compound, the viability, T/C (second compound 0.0316 µM, first compound 1 µM) was 99.2%, the viability, T/C (second compound 0.0316 µM, first compound 3.16 µM) was 87.3% and the viability, T/C (second compound 0.0316 µM, first compound 10 µM) was 90.8%. For the same compound, the viability, T/C [3] was 115%, the viability, T/C (second compound 0.1 µM, first compound 0.1 µM) was 109% and the viability, T/C [4] was 105%. For the same compound, the viability, T/C (second compound 0.1 µM, first compound 1 µM) was 90.6%, the viability, T/C (second compound 0.1 µM, first compound 3.16 µM) was 84.6% and the viability, T/C (second compound 0.1 µM, first compound 10 µM) was 83.5%. The viability, T/C [5] was 88%, the viability, T/C (second compound 0.316 µM, first compound 0.1 µM) was 93.7% and the viability, T/C [6] was 88.9%. For the same compound, the viability, T/C (second compound 0.316 µM, first compound 1 µM) was 85.5%, the viability, T/C (second compound 0.316 µM, first compound 3.16 µM) was 85.5% and the viability, T/C (second compound 0.316 µM, first compound 10 µM) was 77%. For the same compound, the viability, T/C [7] was 87.8%, the viability, T/C (second compound 1 µM, first compound 0.1 µM) was 83.2% and the viability, T/C [8] was 78.8%. The viability, T/C (second compound 1 µM, first compound 1 µM) was 77.7%, the viability, T/C (second compound 1 µM, first compound 3.16 µM) was 87% and the viability, T/C (second compound 1 µM, first compound 10 µM) was 65.3%. For the same compound, the viability, T/C [9] was 78.2%, the viability, T/C (second compound 3.16 µM, first compound 0.1 µM) was 80.3% and the viability, T/C [10] was 78.2%. It also gave a viability, T/C (second compound 3.16 µM, first compound 1 µM) of 74%, a viability, T/C (second compound 3.16 µM, first compound 3.16 µM) of 76.2% and a viability, T/C (second compound 3.16 µM, first compound 10 µM) of 57.4%. It also gave a viability, T/C [11] of 71.7%, a viability, T/C (second compound 10 µM, first compound 0.1 µM) of 70.7% and a viability, T/C [12] of 70.9%. The viability, T/C (second compound 10 µM, first compound 1 µM) was 73.1%, the viability, T/C (second compound 10 µM, first compound 3.16 µM) was 64.8% and the viability, T/C (second compound 10 µM, first compound 10 µM) was 66.2%.
